{"source": "patent US20090030037A1", "about": "“Sustained Release Formulation and Dosing Schedules of Leukotriene Synthesis Inhibitor for Human Therapy” (deCODE Genetics ehf., priority 2005, published 2009)", "key": {"LTB4": {"system": "LTB4", "test": "Study DG-031-201: ionomycin-induced LTB4 production in whole blood ex vivo", "parameters": "species or system human", "details": "for LTB4 production, percent change: Study 201", "method": "Genet. 2004). Apart from FLAP, allele A of the SNP SG12S25 in the LTA4 hydrolase gene, another gene in the LT pathway, is also associated with MI, as described in PCT application no. PCT/US03/32556 and PCT/US04/30582 incorporated by reference.\nPatients who met the study eligibility criteria were enrolled and randomized into 3 different dose-level groups: (1) 64 patients on 250 mg/day therapy with DG-031 (250 mg q.d.), vs placebo; (2) 64 patients on 500 mg/day therapy with DG-031 (250 mg b.i.d.) vs placebo; and (3) 63 patients on 750 mg/day therapy with DG-031 (250 mg t.i.d.) vs placebo. […] All patients received 3 tablets per day. Treatment periods, 4 weeks in duration each, were separated by a 2-week washout period. The placebo tablets were identical in shape, color, form and taste to the active tablets except that they contained no active drug ingredients. Treatment with DG-031 or placebo was in addition to the subject's standard care, including all medications and treatment plan as prescribed by the subject's cardiologist prior to enrolment. A total of 191 subjects were enrolled, with 172 completing all 8 visits or 8 patients short of the target of 180 patients.\nThe primary objective was to determine whether the FLAP inhibitor has a statistically significant effect, compared to placebo, on one or more biomarkers of MI risk, including: (1) ionomycin-induced LTB4 and MPO release by neutrophils ex vivo; (2) MPO, CRP, N-tyrosine, Lp-PLA2 or amyloid A in serum, or (3) LTE4 in urine. The secondary objective was to determine whether the effect of DG-031 was dose-dependent. The tertiary objective was to assess other biomarkers (See Results). Evaluation of safety and tolerability of the drug was also a primary endpoint.\nAll data were analyzed according to a pre-established statistical analysis plan (SAP) and by intention-to-treat (ITT). Each arm of the study, as well as pooled sets (combining dose levels), was considered for the primary analysis. Each such set is an AB/BA cross-over design and in the primary analysis of efficacy, the levels of biomarkers of MI risk at the end of the treatment periods (visits 4 and 7) were used as primary response variables. The difference between DG-031 and placebo treatment was the primary outcome, assessed separately for each of the biomarkers. Treatment effect was tested using a two-sample t-test on the period differences for suitably transformed response variables, under an assumption of normality of the transformed data. We report treatment effect as one half of the observed mean differences in the two-sample t-test, with a 95% CI. No pre-tests for carry-over effect were performed as a part of the primary analysis. Tests for carry-over were done and are reported separately from results of primary analysis. All hypotheses were tested at a two-sided nominal significance level of 0.05 and p-values based on t-tests are reported. In addition, for the primary efficacy endpoints where the effects of the two highest doses on 10 primary variables were studied, a randomization test was performed which corrects for multiple testing and ensures that the key results are not affected by distributional concerns. In particular, 1 million permutations of the patients into the different study tracks were performed, generating a reference distribution for the maximum of the 10 t-statistics of the biomarkers under the null hypothesis of no drug effect. […]"}, "CRP": {"system": "CRP", "test": "Study DG-031-203: serum CRP", "format": "in vivo, human", "method": "The study also collected information on the dose-related effect of DG-031 on capacity for LTB4 production (ex vivo), plasma MPO, and serum-CRP. […] The pattern observed supported a concentration dependent pharmacologic effect of DG-031 on capacity for LTB4 production measured ex vivo. The effects on LTB4 production amounted to a 30% (p=0.016) and 25% (p=0.094) reduction with the 375 mg BID and 250 mg TID doses, respectively."}, "hsCRP": {"system": "hsCRP", "test": "Study DG-031-204: hsCRP", "format": "in vivo, human", "details": "after 4 weeks", "method": "An additional single site, open label study was carried out to obtain biomarker and safety data on additional DG-031 doses (i.e., 1000 mg and 1500 mg). This study examined the safety, tolerability and dose-related effects of DG-031 on inflammatory biomarkers including: LTB4, hsCRP, and MPO. A total of 119 patients with a prior history of CAD and MI were randomized to receive either 1000 mg DG-031 (500 mg BID) or 1500 mg DG-031 (500 mg TID) daily for 4-6 weeks. Treatment with DG-031 in addition to the subject's standard care, medication, and treatment, was prescribed by the patient's cardiologist. A majority of the subjects received statin therapy before, during and after the study. Follow-up assessments were performed 2 weeks after the end of study drug administration.\nThe biomarkers were analyzed as described in Example 1. Statistical analysis of the data was carried out using a one-sample t-test on change from baseline with a two-sided nominal significance level of 0.050. Biomarker concentrations were log-transformed and a simple last observation carried forward (LOCF) scheme was used to impute missing observations.\nAdditionally, hsCRP was measured weekly and tended to decrease in the 1000 mg treatment group. […]"}, "[1]": {"details": "healthy volunteers, total daily dose 100-1000 mg, less than 14 days; cited from earlier work"}}, "note": "Several values for one entry are separate records, joined by “and”; a condition that tells them apart may be missing. Equal values may be shown once.", "data": [{"smiles": "O=C(O)[C@@H](c1ccc(OCc2ccc3ccccc3n2)cc1)C1CCCC1", "note": "[DG-031, (R)-(+)-alpha-cyclopentyl-4-(2-quinolinylmethoxy)-Benzeneacetic acid]", "values": [{"measurement": "LTB4 production, percent change", "setting": "LTB4; 250 mg BID", "result": "−18", "unit": "%"}, {"measurement": "LTB4 production, percent change", "setting": "LTB4; 250 mg QD", "result": "−13", "unit": "%"}, {"measurement": "LTB4 production, percent change", "setting": "LTB4; 250 mg TID", "result": "−34% (St. 201) and −34% (−201)"}, {"measurement": "Reduction of capacity for LTB4 production", "setting": "LTB4; 250 mg TID, at steady state Cmin", "result": 30, "unit": "%"}, {"measurement": "Carry-over effect, LTB4 in whole blood, corr. for wbc", "setting": "LTB4; difference visit 2 to 5, 500 and 750 mg/day vs placebo", "result": "−0.10"}, {"measurement": "Reduction in CRP levels, high CRP group", "setting": "CRP; 250 mg TID, CRP above median 1.4 mg/L at entry", "result": 48, "unit": "%"}, {"measurement": "CRP, change", "setting": "CRP; 250 mg TID, Study 203, 1 wk", "result": "37% (St. 203)"}, {"measurement": "Reduction of serum CRP", "setting": "CRP; 250 mg TID, after one week, follow-up study (203), all subjects", "result": 38, "unit": "%"}, {"measurement": "Reduction in CRP levels, high CRP group", "setting": "CRP; 375 mg BID, CRP above median at entry, p=0.16", "result": 31, "unit": "%"}, {"measurement": "CRP, change", "setting": "CRP; 375 mg BID, Study 203", "result": "No effect"}, {"measurement": "Change in serum CRP", "setting": "CRP; 375 mg BID, one week, all subjects", "result": "−1", "unit": "%"}, {"measurement": "CRP, change", "setting": "CRP; 375 mg QD, Study 203, 1 wk", "result": "−28", "unit": "%"}, {"measurement": "hsCRP reduction, mean change from baseline", "setting": "hsCRP; 1000 mg treatment group", "result": 20, "unit": "%"}, {"measurement": "hsCRP reduction, mean change from baseline", "setting": "hsCRP; 1500 mg treatment group", "result": 3, "unit": "%"}, {"measurement": "Safety and tolerability", "setting": "[1]", "result": "safe and well tolerated"}]}]}
